From patent US9833497B2, “Human originated EGF domain proteins and use of the same” (CHENGDU SOURCEBIO LIMITED-LIABILITY COMPANY, priority 2013, dated 2017)

What was measured:
Format in all cases: cell-based
E. coli DH5α = assay: Antibacterial activity: MIC and growth curve against E. coli DH5α in 96-well plate; conditions: minimal inhibitory concentration against E. coli DH5α; 96-well plate, 5×10^5 CFU/mL, 37° C., judged after 8 h
Protocol: 1. E. coli DH5α was exemplified. E. coli DH5α was streaked and cultured on LB solid medium. Then, a typical clone was picked and inoculated into common LB liquid medium, cultured at 37° C. with shaking at 185 rpm until the logarithmic growth phase was reached (OD600 of about 0.5). The bacterial culture was centrifuged at 4000×g for 3 min, the supernatant was discarded, and the thalli were resuspended with fresh LB medium.
2. The above-mentioned bacterial suspension was diluted and inoculated into a 96-well plate with the total volume of 100 μL per well and a bacterial count of 5×10^5 CFU/mL.
3. The recombinant protein hF VII-EGF1 was added to the above-mentioned wells with the final protein concentration in the well of the highest protein concentration being 50 μg/mL. Basing on this final concentration, a two-fold serial dilution was performed till a protein concentration gradient consisting of 50, 25, and 12.5 μg/mL was set up. Three parallel wells were set up for each concentration in the gradient.
4. The above-mentioned 96-well plate was placed and cultured at 37° C. in shaking incubator shaking at 175 rpm. Samples were taken every 30 min, the absorbance values were determined at 600 nm wavelength under a ultra violet spectrophotometer, and an inhibition curve was plotted. […] The minimal inhibitory concentration MIC is defined as the lowest concentration of the recombinant protein at which there is no growth of the bacteria.
According to the experimental procedures in Example 14, the minimal inhibitory concentrations (MIC, μg/mL) of the other human-originated EGF domain proteins (PRT2 to PRT1498 in Table 1) for E. coli DH5α were determined.

E. coli BL21 = assay: MIC against Gram-negative bacteria: E. coli BL21; conditions: for MIC against E. coli BL21 / MIC E. coli BL21: 96-well plate, 37° C., 10 h
Protocol: (§1) 1. Gram-negative bacteria, such as E. coli BL21, Pseudomonas aeruginosa, Klebsiella pneumonia, Enterobacter cloacae, Aeromonas hydrophila, Citrobacter diversus, Moraxella catarrhalis, Proteus mirabilis, Proteus vulgaris, Serratia marcescens, etc were streaked on solid LB medium and cultured respectively. Then, typical clones were picked, inoculated into common liquid LB medium respectively, and cultured at 37° C. with shaking at 185 rpm until the McFarland specific turbidity was 0.5. The bacterial culture of each of Gram-negative bacteria was centrifuged at 4000×g for 3 min, the supernatant was discarded, and the thalli were resuspended with fresh LB medium.
(§2) 2. The above-mentioned bacterial suspensions were diluted and inoculated into 96-well plates with the final concentration of the bacterial suspension being 5×10^5 CFU/mL per well.
(§3) 3. Each of the purified human-originated EGF domain proteins (PRT1 to PRT1498 in Table 1) was added to each of the above wells and subjected to two-fold serial dilution in concentration. Three parallel wells were set up for each concentration in the gradient.
(§4) 4. The above-mentioned 96-well plates were placed and cultured at 37° C. in shaking incubator shaking at 175 rpm. […] The minimal inhibitory concentration MIC is defined as the lowest concentration of the recombinant protein at which there is no growth of the bacteria.

Pseudomonas aeruginosa = assay: MIC against Gram-negative bacteria: Pseudomonas aeruginosa; conditions: for MIC against P. aeruginosa: Pseudomonas aeruginosa; for MIC against P. aeruginosa / MIC P. aeruginosa: 96-well plate, 37° C., 10 h
Protocol: as §1, §2, §3, §4

Klebsiella pneumonia = assay: MIC against Gram-negative bacteria: Klebsiella pneumonia; conditions: for MIC against K. pneumonia: Klebsiella pneumonia; for MIC against K. pneumonia / MIC K. pneumonia: 96-well plate, 37° C., 10 h
Protocol: as §1, §2, §3, §4

Enterobacter cloacae = assay: MIC against Gram-negative bacteria: Enterobacter cloacae; conditions: for MIC against E. cloacae: Enterobacter cloacae; for MIC against E. cloacae / MIC E. cloacae: 96-well plate, 37° C., 10 h
Protocol: as §1, §2, §3, §4

Aeromonas hydrophila = assay: MIC against Gram-negative bacteria: Aeromonas hydrophila; conditions: for MIC against A. hydrophila: Aeromonas hydrophila; for MIC against A. hydrophila / MIC A. hydrophila: 96-well plate, 37° C., 10 h
Protocol: as §1, §2, §3, §4

Citrobacter diversus = assay: MIC against Gram-negative bacteria: Citrobacter diversus; conditions: for MIC against C. diversus: Citrobacter diversus; for MIC against C. diversus / MIC C. diversus: 96-well plate, 37° C., 10 h
Protocol: as §1, §2, §3, §4

Moraxella catarrhalis = assay: MIC against Gram-negative bacteria: Moraxella catarrhalis; conditions: for MIC against M. catarrhalis: Moraxella catarrhalis; for MIC against M. catarrhalis / MIC M. catarrhalis: 96-well plate, 37° C., 10 h
Protocol: as §1, §2, §3, §4

Proteus mirabilis = assay: MIC against Gram-negative bacteria: Proteus mirabilis; conditions: for MIC against P. mirabilis: Proteus mirabilis; for MIC against P. mirabilis / MIC P. mirabilis: 96-well plate, 37° C., 10 h
Protocol: as §1, §2, §3, §4

Proteus vulgaris = assay: MIC against Gram-negative bacteria: Proteus vulgaris; conditions: for MIC against P. vulgaris: Proteus vulgaris; for MIC against P. vulgaris / MIC P. vulgaris: 96-well plate, 37° C., 10 h
Protocol: as §1, §2, §3, §4

Serratia marcescens = assay: MIC against Gram-negative bacteria: Serratia marcescens; conditions: for MIC against S. marcescens: Serratia marcescens; for MIC against S. marcescens / MIC S. marcescens: 96-well plate, 37° C., 10 h
Protocol: as §1, §2, §3, §4

[1] = E. coli BL21, 10 h cultivation at 37° C., 5×10^5 CFU/mL
[2] = P. aeruginosa, 10 h cultivation at 37° C., 5×10^5 CFU/mL
[3] = K. pneumonia, 10 h cultivation at 37° C., 5×10^5 CFU/mL
[4] = E. cloacae, 10 h cultivation at 37° C., 5×10^5 CFU/mL
[5] = A. hydrophila, 10 h cultivation at 37° C., 5×10^5 CFU/mL
[6] = C. diversus, 10 h cultivation at 37° C., 5×10^5 CFU/mL
[7] = M. catarrhalis, 10 h cultivation at 37° C., 5×10^5 CFU/mL
[8] = P. mirabilis, 10 h cultivation at 37° C., 5×10^5 CFU/mL
[9] = P. vulgaris, 10 h cultivation at 37° C., 5×10^5 CFU/mL
[10] = S. marcescens, 10 h cultivation at 37° C., 5×10^5 CFU/mL

Substance: PRT1294 (DFDDCQDNKCKNGAHCTDAVNGYTCICPEGYSGLFCE; listed as Homo sapiens)
- MIC (E. coli DH5α): 50 µg/mL
- MIC against E. coli BL21 (E. coli BL21; E. coli BL21, 5×10^5 CFU/mL): 12.5 µg/mL
- MIC against P. aeruginosa (Pseudomonas aeruginosa; 5×10^5 CFU/mL): 50 µg/mL
- MIC against K. pneumonia (Klebsiella pneumonia; 5×10^5 CFU/mL): 12.5 µg/mL
- MIC against E. cloacae (Enterobacter cloacae; 5×10^5 CFU/mL): 50 µg/mL
- MIC against A. hydrophila (Aeromonas hydrophila; 5×10^5 CFU/mL): 12.5 µg/mL
- MIC against C. diversus (Citrobacter diversus; 5×10^5 CFU/mL): 50 µg/mL
- MIC against M. catarrhalis (Moraxella catarrhalis; 5×10^5 CFU/mL): 12.5 µg/mL
- MIC against P. mirabilis (Proteus mirabilis; 5×10^5 CFU/mL): 50 µg/mL
- MIC against P. vulgaris (Proteus vulgaris; 5×10^5 CFU/mL): 12.5 µg/mL
- MIC against S. marcescens (Serratia marcescens; 5×10^5 CFU/mL): 50 µg/mL

Substance: PRT838 (GLQECSAYCGSHGTCASPLGPCRCEPGFLGRACD; listed as Homo sapiens)
- MIC (E. coli DH5α): 50 µg/mL
- MIC (μg/mL) E. coli BL21 (E. coli BL21; [1]): 12.5 µg/mL
- MIC (μg/mL) P. aeruginosa (Pseudomonas aeruginosa; [2]): 50 µg/mL
- MIC (μg/mL) K. pneumonia (Klebsiella pneumonia; [3]): 12.5 µg/mL
- MIC (μg/mL) E. cloacae (Enterobacter cloacae; [4]): 25 µg/mL
- MIC (μg/mL) A. hydrophila (Aeromonas hydrophila; [5]): 50 µg/mL
- MIC (μg/mL) C. diversus (Citrobacter diversus; [6]): 25 µg/mL
- MIC (μg/mL) M. catarrhalis (Moraxella catarrhalis; [7]): 12.5 µg/mL
- MIC (μg/mL) P. mirabilis (Proteus mirabilis; [8]): 25 µg/mL
- MIC (μg/mL) P. vulgaris (Proteus vulgaris; [9]): 12.5 µg/mL
- MIC (μg/mL) S. marcescens (Serratia marcescens; [10]): 25 µg/mL

Substance: PRT1032 (DVNECDIPGHCQHGGTCLNLPGSYQCQCLQGFTGQYCD; listed as Homo sapiens)
- MIC (E. coli DH5α): 50 µg/mL
- MIC (E. coli BL21; E. coli BL21, 10 h cultivation at 37° C.): 12.5 µg/mL
- MIC (Pseudomonas aeruginosa; P. aeruginosa, 10 h cultivation at 37° C.): 50 µg/mL
- MIC (Klebsiella pneumonia; K. pneumonia, 10 h cultivation at 37° C.): 12.5 µg/mL
- MIC (Enterobacter cloacae; E. cloacae, 10 h cultivation at 37° C.): 50 µg/mL
- MIC (Aeromonas hydrophila; A. hydrophila, 10 h cultivation at 37° C.): 12.5 µg/mL
- MIC (Citrobacter diversus; C. diversus, 10 h cultivation at 37° C.): 25 µg/mL
- MIC (Moraxella catarrhalis; M. catarrhalis, 10 h cultivation at 37° C.): 50 µg/mL
- MIC (Proteus mirabilis; P. mirabilis, 10 h cultivation at 37° C.): 25 µg/mL
- MIC (Proteus vulgaris; P. vulgaris, 10 h cultivation at 37° C.): 12.5 µg/mL
- MIC (Serratia marcescens; S. marcescens, 10 h cultivation at 37° C.): 25 µg/mL

Substance: PRT1205 (EHDECITNQHNCDENALCFNTVGGHNCVCKPGYTGNGTTCK; listed as Homo sapiens)
- MIC (E. coli DH5α): 25 µg/mL
- MIC against E. coli BL21 (E. coli BL21; E. coli BL21, 5×10^5 CFU/mL): 12.5 µg/mL
- MIC against P. aeruginosa (Pseudomonas aeruginosa; 5×10^5 CFU/mL): 50 µg/mL
- MIC against K. pneumonia (Klebsiella pneumonia; 5×10^5 CFU/mL): 25 µg/mL
- MIC against E. cloacae (Enterobacter cloacae; 5×10^5 CFU/mL): 12.5 µg/mL
- MIC against A. hydrophila (Aeromonas hydrophila; 5×10^5 CFU/mL): 50 µg/mL
- MIC against C. diversus (Citrobacter diversus; 5×10^5 CFU/mL): 12.5 µg/mL
- MIC against M. catarrhalis (Moraxella catarrhalis; 5×10^5 CFU/mL): 25 µg/mL
- MIC against P. mirabilis (Proteus mirabilis; 5×10^5 CFU/mL): 50 µg/mL
- MIC against P. vulgaris (Proteus vulgaris; 5×10^5 CFU/mL): 12.5 µg/mL
- MIC against S. marcescens (Serratia marcescens; 5×10^5 CFU/mL): 25 µg/mL

Substance: PRT677 (ETDECRLNQNICGHGECVPGPPDYSCHCNPGYRSHPQHRYCV; listed as Homo sapiens)
- MIC (E. coli DH5α): 50 µg/mL
- MIC E. coli BL21 (E. coli BL21; 5×10^5 CFU/mL): 25 µg/mL
- MIC P. aeruginosa (Pseudomonas aeruginosa; 5×10^5 CFU/mL): 12.5 µg/mL
- MIC K. pneumonia (Klebsiella pneumonia; 5×10^5 CFU/mL): 50 µg/mL
- MIC E. cloacae (Enterobacter cloacae; 5×10^5 CFU/mL): 25 µg/mL
- MIC A. hydrophila (Aeromonas hydrophila; 5×10^5 CFU/mL): 12.5 µg/mL
- MIC C. diversus (Citrobacter diversus; 5×10^5 CFU/mL): 25 µg/mL
- MIC M. catarrhalis (Moraxella catarrhalis; 5×10^5 CFU/mL): 25 µg/mL
- MIC P. mirabilis (Proteus mirabilis; 5×10^5 CFU/mL): 50 µg/mL
- MIC P. vulgaris (Proteus vulgaris; 5×10^5 CFU/mL): 12.5 µg/mL
- MIC S. marcescens (Serratia marcescens; 5×10^5 CFU/mL): 50 µg/mL

Substance: PRT630 (CQCSGNVDPNAVGNCDPLSGHCLRCLHNTTGDHCEHCQEGFYGSALAPRPADKCMP; listed as Homo sapiens)
- MIC (E. coli DH5α): 50 µg/mL
- MIC E. coli BL21 (E. coli BL21; 5×10^5 CFU/mL): 25 µg/mL
- MIC P. aeruginosa (Pseudomonas aeruginosa; 5×10^5 CFU/mL): 12.5 µg/mL
- MIC K. pneumonia (Klebsiella pneumonia; 5×10^5 CFU/mL): 25 µg/mL
- MIC E. cloacae (Enterobacter cloacae; 5×10^5 CFU/mL): 12.5 µg/mL
- MIC A. hydrophila (Aeromonas hydrophila; 5×10^5 CFU/mL): 25 µg/mL
- MIC C. diversus (Citrobacter diversus; 5×10^5 CFU/mL): 12.5 µg/mL
- MIC M. catarrhalis (Moraxella catarrhalis; 5×10^5 CFU/mL): 25 µg/mL
- MIC P. mirabilis (Proteus mirabilis; 5×10^5 CFU/mL): 12.5 µg/mL
- MIC P. vulgaris (Proteus vulgaris; 5×10^5 CFU/mL): 25 µg/mL
- MIC S. marcescens (Serratia marcescens; 5×10^5 CFU/mL): 12.5 µg/mL

Substance: PRT431 (DIDECRTIPEACRGDMMCVNQNGGYLCIPRTNPVYRGPYSN; listed as Homo sapiens)
- MIC (E. coli DH5α): 50 µg/mL
- MIC (E. coli BL21; [1]): 12.5 µg/mL
- MIC (Pseudomonas aeruginosa; [2]): 50 µg/mL
- MIC (Klebsiella pneumonia; [3]): 12.5 µg/mL
- MIC (Enterobacter cloacae; [4]): 50 µg/mL
- MIC (Aeromonas hydrophila; [5]): 12.5 µg/mL
- MIC (Citrobacter diversus; [6]): 50 µg/mL
- MIC (Moraxella catarrhalis; [7]): 12.5 µg/mL
- MIC (Proteus mirabilis; [8]): 50 µg/mL
- MIC (Proteus vulgaris; [9]): 25 µg/mL
- MIC (Serratia marcescens; [10]): 12.5 µg/mL
